According to US20260103465A1, “GLYCOGEN SYNTHASE KINASE 3 INHIBITORS AND USES THEREOF” (The Broad Institute, Inc., priority 2023, published 2026):
Where two headings read alike, the source gives them in different places.

Legend:
[1] = target: T1, GSK3a (GST-full length GSK3a) (Homo sapiens, UniProt P49840); assay: GSK3a TR-FRET kinase inhibition assay; format: biochemical
T1 construct: GST-full length GSK3a [SignalChem G08-10G]; purchased SignalChem G08-10G
Summary of the method: (§1)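 IC50 derived from normalized 665/615 TR-FRET signal (Tb anti-pSer641 antibody, streptavidin-d2), read after EDTA stop. Reaction: 1 nM GST-full-length enzyme, 30 min compound pre-incubation, 100 min at ambient temperature in Tris pH 7.5 with 1% DMSO, 200 nM biotinylated primed glycogen synthase peptide, ATP 2 μM to 1 mM.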

[2] = target: T2, GSK3b (GST-full length GSK3b) (Homo sapiens, UniProt P49841); assay: GSK3b TR-FRET kinase inhibition assay; format: biochemical
T2 construct: GST-full length GSK3b: [SignalChem G08-9G]; purchased SignalChem G08-9G
Summary of the method: as §1

[3] = Human liver microsomal stability; format: in vitro ADME; conditions: human liver microsomes; Table 4
Summary of the method: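 Compound incubated at 1 µM with human liver microsomes for 60 min at 37 °C, in duplicate. Percent remaining derived from compound level at 60 min relative to 0 min. Controls: microsomes with NADPH and no compound; compound with microsomes lacking NADPH.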

[4] = system: MDR1-MDCK cell monolayers; assay: MDR1/MDCK permeability assay; format: in vitro ADME; conditions: Table 4; for MDCK Permeability (MDR1-MDCK); Mean; Papp(A-B) (10^−6 cm/s): A to B; for MDCK Permeability (MDR1-MDCK); Mean; Papp(B-A) (10^−6 cm/s): B to A; for MDCK Permeability (MDR1-MDCK); Mean; P. Ratio(B-A/A-B) Efflux Ratio: Papp B-A/A-B
Summary of the method: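 Confluent MDR1-MDCK monolayers (7–11 days old), compound dosed at 5 μM in HBSSg (≤1% DMSO) apically or basolaterally, pH 7.4 both sides, receiver with 1% BSA, N=2. Both sides sampled at 120 min and quantified by LC-MS/MS; Papp in each direction, efflux ratio B-A/A-B and recovery reported.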

[5] = 4 μM ATP, read-out: GSK3α TR-FRET 4 μM ATP GMean IC50
[6] = 2 μM ATP, read-out: GSK3β TR-FRET 2 μM ATP GMean IC50
[7] = 1 mM ATP, Table 4, read-out: GSK3α TR-FRET 1 mM ATP GMean IC50
[8] = 1 mM ATP, Table 4, read-out: GSK3β TR-FRET 1 mM ATP GMean IC50

T2 sequence (P49841 whole entry): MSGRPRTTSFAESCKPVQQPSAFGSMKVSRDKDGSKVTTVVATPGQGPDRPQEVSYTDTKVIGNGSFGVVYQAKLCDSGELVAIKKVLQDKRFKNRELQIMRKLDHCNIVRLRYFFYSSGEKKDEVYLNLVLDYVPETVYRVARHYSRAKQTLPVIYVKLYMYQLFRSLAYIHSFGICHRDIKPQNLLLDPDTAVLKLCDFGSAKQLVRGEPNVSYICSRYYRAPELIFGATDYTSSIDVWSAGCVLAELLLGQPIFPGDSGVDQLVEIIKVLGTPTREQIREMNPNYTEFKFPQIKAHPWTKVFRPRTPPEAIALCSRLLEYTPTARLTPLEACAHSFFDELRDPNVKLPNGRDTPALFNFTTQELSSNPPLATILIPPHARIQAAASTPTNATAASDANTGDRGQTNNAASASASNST
T1 sequence (P49840 whole entry): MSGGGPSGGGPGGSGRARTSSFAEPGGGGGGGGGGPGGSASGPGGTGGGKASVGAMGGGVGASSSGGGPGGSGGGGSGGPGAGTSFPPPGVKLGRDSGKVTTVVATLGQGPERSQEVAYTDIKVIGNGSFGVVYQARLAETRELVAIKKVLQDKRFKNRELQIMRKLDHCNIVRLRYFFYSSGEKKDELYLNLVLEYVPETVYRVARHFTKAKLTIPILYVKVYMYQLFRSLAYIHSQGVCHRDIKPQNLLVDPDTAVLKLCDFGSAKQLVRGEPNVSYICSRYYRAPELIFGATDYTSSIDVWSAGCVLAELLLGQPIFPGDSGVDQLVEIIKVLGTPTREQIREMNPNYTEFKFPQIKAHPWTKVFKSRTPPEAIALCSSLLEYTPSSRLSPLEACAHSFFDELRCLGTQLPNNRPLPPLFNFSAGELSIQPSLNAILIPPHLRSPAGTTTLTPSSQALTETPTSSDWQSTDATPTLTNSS

Compound | IC50 [1, 5] [nM] | IC50 [2, 6] [nM] | Microsome Stability (Human) (DMPK_BIIB); Mean; in vitro t1/2 [3] [min] | MDCK Permeability (MDR1-MDCK); Mean; Papp(A-B) (10^−6 cm/s) [4] | MDCK Permeability (MDR1-MDCK); Mean; Papp(B-A) (10^−6 cm/s) [4] | MDCK Permeability (MDR1-MDCK); Mean; P. Ratio(B-A/A-B) Efflux Ratio [4] | IC50 [1, 7] [nM] | IC50 [2, 8] [nM]
CCC1(c2cccc(O)c2)C2=C(CC(C)(C)CC2=O)Nc2ncc(F)cc21 (single isomer, unassigned) [Compound 1010A] | > 5000 | > 5000 | 6.1 | 0.60 10^−6 cm/s | 28 10^−6 cm/s | 51 |  | 
CCC1(c2cccc(O)c2)C2=C(CC(C)(C)CC2=O)Nc2ncc(F)cc21 (single isomer, unassigned) [Compound 1010B] | ≤ 100 | ≤ 100 | 11 | 0.80 10^−6 cm/s | 39 10^−6 cm/s | 48 |  | 
CCC1(c2cccc(C(C)C)c2)C2=C(CC(C)(C)CC2=O)Nc2ncccc21 (single isomer, unassigned) [Compound 1011B] | ≤ 100 | ≤ 100 | 3.8 | 15 10^−6 cm/s | 28 10^−6 cm/s | 1.9 |  | 
CCC1(c2cccc(-c3cccnc3)c2)C2=C(CC(C)(C)CC2=O)Nc2ncccc21 (single isomer, unassigned) [Compound 1015A] | ≤ 100 | ≤ 100 | 2.8 | 4.7 10^−6 cm/s | 44 10^−6 cm/s | 9.5 |  | 
CCC1(c2cccc(-c3ccccn3)c2)C2=C(CC(C)(C)CC2=O)Nc2ncccc21 (single isomer, unassigned) [Compound 1016A] | ≤ 100 | ≤ 100 | 1.5 | 4.5 10^−6 cm/s | 32 10^−6 cm/s | 6.9 |  | 
CCC1(c2cccc(-c3ccncc3)c2)C2=C(CC(C)(C)CC2=O)Nc2ncccc21 (single isomer, unassigned) [Compound 1017A] | ≤ 100 | 100 to 1000 | 6.2 | 6.9 10^−6 cm/s | 32 10^−6 cm/s | 4.6 |  | 
CCC1(c2cccc(-c3ccnn3C)c2)C2=C(CC(C)(C)CC2=O)Nc2ncccc21 (single isomer, unassigned) [Compound 1019A] | ≤ 100 | ≤ 100 | 4.8 | 4.2 10^−6 cm/s | 39 10^−6 cm/s | 9.5 | 100 to 1000 | 1000 to 5000
CCC1(c2cccc(-c3ccncc3C)c2)C2=C(CC(C)(C)CC2=O)Nc2ncccc21 (single isomer, unassigned) [Compound 1020B] | ≤ 100 | ≤ 100 | 6.4 | 14 10^−6 cm/s | 24 10^−6 cm/s | 1.8 | 100 to 1000 | 1000 to 5000
CCC1(c2cccc(-c3cn(C)nc3C)c2)C2=C(CC(C)(C)CC2=O)Nc2ncccc21 (single isomer, unassigned) [Compound 1023A] | ≤ 100 | ≤ 100 | 3.2 | 3.0 10^−6 cm/s | 27 10^−6 cm/s | 9.0 | 100 to 1000 | 1000 to 5000
CCC1(c2cccc(-c3cc(C)nn3C)c2)C2=C(CC(C)(C)CC2=O)Nc2ncccc21 (single isomer, unassigned) [Compound 1024B] | ≤ 100 | 100 to 1000 | 4.3 | 2.8 10^−6 cm/s | 31 10^−6 cm/s | 11 |  | 
CCC1(c2cccc(-c3ccnn3C)c2)C2=C(CC(C)(C)CC2=O)Nc2ncc(F)cc21 (single isomer, unassigned) [Compound 1025A] | ≤ 100 | ≤ 100 | 5.5 | 4.6 10^−6 cm/s | 42 10^−6 cm/s | 9.1 |  | 
CCC1(c2cccc(-c3cc(C)ncc3C)c2)C2=C(CC(C)(C)CC2=O)Nc2ncccc21 (single isomer, unassigned) [Compound 1027B] | ≤ 100 | 100 to 1000 | 3.1 | 5.1 10^−6 cm/s | 30 10^−6 cm/s | 5.8 |  | 
CCC1(c2cccc(-c3ccncc3C)c2)C2=C(CC(C)(C)CC2=O)Nc2ncc(F)cc21 (single isomer, unassigned) [Compound 1031B] | ≤ 100 | ≤ 100 | 19 | 6.2 10^−6 cm/s | 22 10^−6 cm/s | 3.6 |  | 
CCC1(c2cccc(-c3cn(C)nc3C)c2)C2=C(CC(C)(C)CC2=O)Nc2ncc(F)cc21 (single isomer, unassigned) [Compound 1032B] | ≤ 100 | ≤ 100 | 6.4 | 2.3 10^−6 cm/s | 26 10^−6 cm/s | 11 |  | 
CCC1(c2cccc(-c3ccnc4c3CCC4)c2)C2=C(CC(C)(C)CC2=O)Nc2ncccc21 (single isomer, unassigned) [Compound 1034B] | ≤ 100 | ≤ 100 | 4.1 | 7.6 10^−6 cm/s | 25 10^−6 cm/s | 3.3 |  | 
CCC1(c2cccc(-c3ccncc3OC)c2)C2=C(CC(C)(C)CC2=O)Nc2ncc(F)cc21 (single isomer, unassigned) [Compound 1037B] | ≤ 100 | ≤ 100 | 5.6 | 2.7 10^−6 cm/s | 26 10^−6 cm/s | 9.6 |  | 
CCC1(c2cccc(-c3cncn3C(C)C)c2)C2=C(CC(C)(C)CC2=O)Nc2ncc(F)cc21 (single isomer, unassigned) [Compound 1038A] | ≤ 100 | ≤ 100 | 16 | 0.90 10^−6 cm/s | 41 10^−6 cm/s | 43 |  | 
CCC1(c2cccc(-c3cncn3C(C)C)c2)C2=C(CC(C)(C)CC2=O)Nc2ncc(F)cc21 (single isomer, unassigned) [Compound 1038B] | ≤ 100 | 100 to 1000 | 13 | 0.70 10^−6 cm/s | 34 10^−6 cm/s | 49 |  | 
CCC1(c2cccc(-c3ccnc4c3CCCC4)c2)C2=C(CC(C)(C)CC2=O)Nc2ncccc21 (single isomer, unassigned) [Compound 1039B] | ≤ 100 | ≤ 100 | 4.6 | 6.6 10^−6 cm/s | 22 10^−6 cm/s | 3.3 | 100 to 1000 | 1000 to 5000
